Assay results published in patent US20230241121A1, “COMPOSITIONS AND METHODS RELATING TO EXOSOMES DERIVED FROM HUMAN DERMAL PAPILLA CELLS” (NORTH CAROLINA STATE UNIVERSITY, priority 2020, published 2023).

Tests used:
Ki67 = assay: Immunostaining of Ki67 in dorsal skin hair follicles ten days after treatment; assay type: in vivo, C57BL/6 mice; conditions: day 10
Description: (§1) Animals and in vivo studies. Seven-week-old male C57BL/6 mice were purchased from Jackson laboratory and allowed to adapt to their new environment for 1 week. Hair was removed by using depilatory cream to observe the pink skin. Then, animals were randomly divided into groups (n=5) randomly to investigate hair regrowth. Minoxidil was topically applied daily as a positive control. Other treatments were given subcutaneously. All work with mice was in accordance with IACUC. Cell treatment dose: 1.0×10^6 cells in 200 μL PBS were subcutaneously injected into 10 spots (20 μL per site) on the left side of the dorsal skin. Exosome treatment dose: 2.0×10^9 exosomes in 200 μL PBS were subcutaneously injected to 10 spots (20 μL per site) on the left side of the backs. Negative control, miR-218-5p mimics and inhibitors (Sigma-Aldrich): administered according to the protocol provided by in vivo-jetPEI™ (Polyplus transfection). In brief, mice received ten injections per depilated dorsal skin. 400 ng miRNA mimic or inhibitor was dissolved in 90 μl 5% glucose (w/v) solution, and then 10 μl in vivo-jet PEI solution was added. Vortex-mix the solution immediately and incubate for 15 minutes at room temperature before injection. Control groups were injected with mimic control.
(§2) Skin tissue histology. Mice were euthanized and the whole dorsal skin was removed. […]

β-catenin = assay: Immunostaining of β-catenin in dorsal skin hair follicles ten days after treatment; assay type: in vivo, C57BL/6 mice; conditions: treated side, day 10
Description: as §1, §2

depilated C57BL/6 mice = assay: Dorsal hair regrowth in depilated mice; assay type: in vivo
Description: Animals and in vivo studies. Seven-week-old male C57BL/6 mice were purchased from Jackson laboratory and allowed to adapt to their new environment for 1 week. Hair was removed by using depilatory cream to observe the pink skin. Then, animals were randomly divided into groups (n=5) randomly to investigate hair regrowth. Minoxidil was topically applied daily as a positive control. Other treatments were given subcutaneously. All work with mice was in accordance with IACUC. Cell treatment dose: 1.0×10^6 cells in 200 μL PBS were subcutaneously injected into 10 spots (20 μL per site) on the left side of the dorsal skin. Exosome treatment dose: 2.0×10^9 exosomes in 200 μL PBS were subcutaneously injected to 10 spots (20 μL per site) on the left side of the backs. Negative control, miR-218-5p mimics and inhibitors (Sigma-Aldrich): administered according to the protocol provided by in vivo-jetPEI™ (Polyplus transfection). In brief, mice received ten injections per depilated dorsal skin. 400 ng miRNA mimic or inhibitor was dissolved in 90 μl 5% glucose (w/v) solution, and then 10 μl in vivo-jet PEI solution was added. Vortex-mix the solution immediately and incubate for 15 minutes at room temperature before injection. […]
The state of hair re-growth in depilated mice was photographed on days 0, 10, 15, and 20, and hair growth area was analyzed via morphological observation (FIGS. 3A-3D). […]

CD133 = assay: Immunostaining of CD133 in dorsal skin hair follicles ten days after treatment; assay type: in vivo, C57BL/6 mice; conditions: treated side, day 10
Description: as §1, §2

Q: Nc1cc(N2CCCCC2)nc(N)[n+]1[O-] [5% minoxidil, minoxidil] was tested. Which Ki67 signals (Ki67; non-treated side) did it give?
A: Its Ki67 signals is 7.1%.

Q: What about the Ki67 signals (Ki67; treated side) of the same molecule?
A: The Ki67 signals was 37.2%.

Q: And the “expression of β-catenin (β-catenin positive cells)” value (β-catenin)?
A: Its value is 2.3%.

Q: And the fur coverage (depilated C57BL/6 mice; day 15, treated side)?
A: Its fur coverage is 35%.

Q: What about the fur coverage (depilated C57BL/6 mice; day 15, untreated side) of the same molecule?
A: The fur coverage was 10%.

Q: And the “expression of CD133 (CD133 positive cells)” value (CD133)?
A: Its value is 7.2%.
